Experimental data taken from ChEMBL document CHEMBL3046343, “Responses of the cabbage seedpod weevil, Ceutorhynchus obstrictus (Marsham) (Coleoptera: Curculionidae), to seed treatments of canola (Brassica napus L.) with the neonicotinoid compounds clothianidin and imidacloprid” (2009).
Activity calls are given as the source filed them. No cut-off for these calls is given here.

Experiments:
[1] = system: Ceutorhynchus obstrictus; test: Inhibition of Ceutorhynchus obstrictus development in canola pods of plant developed from compound treated seeds assessed as decrease in number of exit holes formed by larvae at 0.28 kg AI per 45.36 kg seeds relative to untreated control; format: functional
[2] = system: Ceutorhynchus obstrictus; test: Inhibition of Ceutorhynchus obstrictus preimaginal development in Brassica napus L. Ryder pods of plant developed from compound treated seeds assessed as decrease in number of second-instar larvae at 800 g/L FS by microscopic analysis; format: functional, organism-based
[3] = system: Ceutorhynchus obstrictus; test: Inhibition of Ceutorhynchus obstrictus development in canola pods of plant developed from compound treated seeds assessed as decrease in number of exit holes formed by larvae at 0.23 kg AI per 45.36 kg seeds; format: functional
[4] = system: Ceutorhynchus obstrictus; test: Inhibition of Ceutorhynchus obstrictus development in canola pods of plant developed from compound treated seeds assessed as decrease in number of exit holes formed by larvae at 0.30 kg AI per 45.36 kg seeds; format: functional
[5] = system: Ceutorhynchus obstrictus; test: Inhibition of Ceutorhynchus obstrictus development in canola pods of plant developed from compound treated seeds assessed as decrease in number of exit holes formed by larvae at 0.38 kg AI per 45.36 kg seeds; format: functional
[6] = system: Ceutorhynchus obstrictus; test: Inhibition of Ceutorhynchus obstrictus preimaginal development in Brassica napus L. Ryder pods of plant developed from compound treated seeds assessed as decrease in number of third-instar larvae at 800 g/L FS by microscopic analysis; format: functional, organism-based
[7] = system: Ceutorhynchus obstrictus; test: Inhibition of Ceutorhynchus obstrictus development in canola pods of plant developed from compound treated seeds assessed as decrease in number of exit holes formed by larvae at 0.38 kg AI per 45.36 kg seeds relative to untreated control; format: functional
[8] = system: Ceutorhynchus obstrictus; test: Inhibition of Ceutorhynchus obstrictus development in canola pods of plant developed from compound treated seeds assessed as decrease in number of exit holes formed by larvae at 0.45 kg AI per 45.36 kg seeds relative to untreated control; format: functional
[9] = system: Ceutorhynchus obstrictus; test: Inhibition of Ceutorhynchus obstrictus preimaginal development in Brassica napus L. Ryder pods of plant developed from compound treated seeds assessed as effect on number of first-instar larvae at 800 g/L FS by microscopic analysis; format: functional, organism-based
[10] = system: Contarinia nasturtii; test: Inhibition of Contarinia nasturtii larval development in Brassica oleracea L. var italica plant developed from compound pretreated seeds at 4.5 g AI per 100 g seed measured at 4-5 weeks after planting; format: functional; set-up: scale not given: the % may be the effect or the level left
[11] = system: Ceutorhynchus obstrictus; test: Inhibition of emergence of new-generation Ceutorhynchus obstrictus adults from soil harboring Brassica napus L. Ryder plant developed from compound treated seeds at 800 g/L FS measured for 5 weeks relative to lindane; format: functional
[12] = system: Ceutorhynchus obstrictus; test: Inhibition of Ceutorhynchus obstrictus development in canola pods of plant developed from compound treated seeds assessed as decrease in number of exit holes formed by larvae at 0.30 kg AI per 45.36 kg seeds relative to untreated control; format: functional
[13] = system: Ceutorhynchus obstrictus; test: Effect on Ceutorhynchus obstrictus oviposition in Brassica napus L. Ryder pods of plant developed from compound treated seeds assessed as number of eggs deposited at 800 g/L FS by microscopic analysis; format: functional, organism-based
[14] = system: Ceutorhynchus obstrictus; test: Inhibition of Ceutorhynchus obstrictus preimaginal development in Brassica napus L. Ryder pods of plant developed from compound treated seeds assessed as decrease in number of exit holes formed per pod by larvae at 800 g/L FS; format: functional, organism-based
[15] = system: Ceutorhynchus obstrictus; test: Inhibition of Ceutorhynchus obstrictus development in canola pods of plant developed from compound treated seeds assessed as decrease in number of exit holes formed by larvae at 0.28 kg AI per 45.36 kg seeds; format: functional
[16] = system: Ceutorhynchus obstrictus; test: Inhibition of Ceutorhynchus obstrictus development in canola pods of plant developed from compound treated seeds assessed as decrease in number of exit holes formed by larvae at 0.45 kg AI per 45.36 kg seeds; format: functional
[17] = system: Ceutorhynchus obstrictus; test: Inhibition of Ceutorhynchus obstrictus development in canola pods of plant developed from compound treated seeds assessed as decrease in number of exit holes formed by larvae at 0.23 kg AI per 45.36 kg seeds relative to untreated control; format: functional
[18] = system: Ceutorhynchus obstrictus; test: Inhibition of Ceutorhynchus obstrictus preimaginal development in Brassica napus L. Ryder pods of plant developed from compound treated seeds assessed as decrease in number of third-instar larvae at 600 g/L FS by microscopic analysis; format: functional, organism-based
[19] = system: Ceutorhynchus obstrictus; test: Effect on Ceutorhynchus obstrictus oviposition in Brassica napus L. Ryder pods of plant developed from compound treated seeds assessed as number of eggs deposited at 600 g/L FS by microscopic analysis; format: functional, organism-based
[20] = system: Ceutorhynchus obstrictus; test: Inhibition of Ceutorhynchus obstrictus preimaginal development in Brassica napus L. Ryder pods of plant developed from compound treated seeds assessed as decrease in number of exit holes formed per pod by third-instar larvae at 600 g/L FS; format: functional, organism-based
[21] = system: Ceutorhynchus obstrictus; test: Inhibition of emergence of new-generation Ceutorhynchus obstrictus adults from soil harboring Brassica napus L. Ryder plant developed from compound treated seeds at 600 g/L FS measured for 5 weeks relative to lindane; format: functional
[22] = system: Ceutorhynchus obstrictus; test: Inhibition of Ceutorhynchus obstrictus preimaginal development in Brassica napus L. Ryder pods of plant developed from compound treated seeds assessed as decrease in number of second-instar larvae at 600 g/L FS by microscopic analysis; format: functional, organism-based
[23] = system: Ceutorhynchus obstrictus; test: Inhibition of Ceutorhynchus obstrictus preimaginal development in Brassica napus L. Ryder pods of plant developed from compound treated seeds assessed as effect on number of first-instar larvae at 600 g/L FS by microscopic analysis; format: functional, organism-based
[24] = system: Ceutorhynchus obstrictus; test: Ratio of compound to clothianidin for exit holes formed in Brassica napus L. Ryder pods by Ceutorhynchus obstrictus larvae; format: functional
[25] = system: Ceutorhynchus obstrictus; test: Ratio of compound to imidacloprid for exit holes formed in Brassica napus L. Ryder pod by […] larvae of Ceutorhynchus obstrictus; format: functional
[26] = system: Ceutorhynchus obstrictus; test: Inhibition of Ceutorhynchus obstrictus preimaginal development in Brassica napus L. Ryder pods of plant developed from compound treated seeds assessed as effect on number of first-instar larvae at 1351 g per 100 kg seeds by microscopic analysis; format: functional, organism-based
[27] = system: Ceutorhynchus obstrictus; test: Effect on Ceutorhynchus obstrictus oviposition in Brassica napus L. Ryder pods of plant developed from compound treated seeds assessed as number of eggs deposited at 1351 g per 100 kg seeds by microscopic analysis; format: functional, organism-based

## O=[N+]([O-])/N=C1\NCCN1Cc1ccc(Cl)nc1 [IMIDACLOPRID]
[1]
  fold change (FC): 2.2
[2]
  inhibition: Active
[3]
  inhibition (INH): 88%
[4]
  inhibition (INH): 96%
[5]
  inhibition (INH): 98%
[6]
  inhibition: Active
[7]
  fold change (FC): 2
[8]
  fold change (FC): 2.4
[9]
  inhibition: inactive
[10]
  Activity: 100%
[11]
  inhibition (INH): 39.4%
[12]
  fold change (FC): 2.1
[13]
  Activity: inactive
[14]
  inhibition: Active
[15]
  inhibition (INH): 100%
[16]
  inhibition (INH): 100%
[17]
  fold change (FC): 1.9

## CN/C(=N\[N+](=O)[O-])NCc1cnc(Cl)s1 [CLOTHIANIDINE]
[18]
  inhibition: Active
[19]
  Activity: inactive
[10]
  Activity: 100%
[20]
  inhibition: Active
[21]
  inhibition (INH): 52.2%
[22]
  inhibition: Active
[23]
  inhibition: inactive

## Cl[C@H]1[C@H](Cl)[C@@H](Cl)[C@@H](Cl)[C@H](Cl)[C@H]1Cl [LINDANE]
[24]
  fold change (FC): 2.5
[25]
  fold change (FC): 2
[26]
  inhibition: inactive
[27]
  Activity: inactive
